Measurements from ChEMBL document CHEMBL1156449, “The nucleoside analog sangivamycin induces apoptotic cell death in breast carcinoma MCF7/adriamycin-resistant cells via protein kinase Cdelta and JNK activation” (J Biol Chem, 2007).
Active and inactive are the calls of the source. The calls are words filed in the database; no cut-off is given here.

Columns and labels:
[1] = tested on: MCF/ADR; test: Induction of JNK p54 isoform phosphorylation in human multidrug resistant MCF/ADR cells at 0.3 uM after 48 hrs by immunoblot analysis; type: cell-based
[2] = molecular target: Transcription factor Jun (Homo sapiens) (UniProt P05412); test: Induction of c-Jun serine 63 phosphorylation in human multidrug resistant MCF/ADR cells at 0.3 uM; type: cell-based
[3] = tested on: MCF/WT; test: Induction of apoptosis in human drug sensitive MCF/WT cells assessed as annexin V binding to phosphatidylserine at 0.3 uM after 6 hrs; type: functional, cell-based
[4] = tested on: MCF/ADR; test: Induction of apoptosis in human multidrug resistant MCF/ADR cells assessed as cleavage of lamin A at 0.3 uM by immunoblot analysis; type: functional, cell-based
[5] = tested on: MCF/ADR; test: Inhibition of induction of apoptosis in human multidrug resistant MCF/ADR cells assessed as inhibition of cleavage of PARP at 0.3 uM after 48 hrs by immunoblot analysis in presence of caspase 9-specific inhibitor; type: functional, cell-based
[6] = tested on: MCF-10A; test: Induction of apoptosis in human MCF10A cells assessed as accumulation of PARP at 0.3 uM after 48 hrs by immunoblot analysis; type: functional, cell-based
[7] = Cell cycle arrest in human drug-sensitive MCF/WT cells assessed as accumulation at sub G0/G1 phase at 0.3 uM after 72 hrs by propidium fluorescence flow cytometry; type: functional, cell-based
[8] = tested on: MCF/ADR; test: Induction of apoptosis in human multidrug resistant MCF/ADR cells assessed as activation of caspase 6 at 0.3 uM by immunoblot analysis; type: functional, cell-based
[9] = Inhibition of PKC
[10] = molecular target: c-Jun N-terminal kinase, JNK (Homo sapiens) (UniProt P45983+P53779+P45984); test: Effect on mitochondrial localization of phosphorylated JNK with Bcl-x/l in human multidrug resistant MCF/ADR cells assessed as enhanced JNK activity by Mitotracker red staining; type: cell-based
[11] = tested on: MCF/WT; test: Cytostatic effect in human drug sensitive MCF/WT cells assessed as slight increase in number of viable cells at 0.1 uM after 1 hr measured after 72 hrs in absence of drug by MTT colorimetric assay; type: functional, cell-based
[12] = Cell cycle arrest in human multidrug resistant MCF/ADR cells assessed as accumulation at sub G0/G1 phase at 0.3 uM after 24 hrs by propidium fluorescence flow cytometry; type: functional, cell-based
[13] = Cell cycle arrest in human drug-sensitive MCF/WT cells assessed as accumulation at G0/G1 phase at 0.3 uM after 72 hrs by propidium fluorescence flow cytometry; type: functional, cell-based
[14] = tested on: MCF/ADR; test: Inhibition of induction of apoptosis in human multidrug resistant MCF/ADR cells assessed as inhibition of cleavage of PARP at 0.3 uM after 48 hrs by immunoblot analysis in presence of pan-specific inhibitor; type: functional, cell-based
[15] = tested on: MCF/ADR; test: Blockade of apoptosis induction in human multidrug resistant MCF/ADR cells at 0.3 uM after 48 hrs in presence of SP600125; type: functional, cell-based
[16] = Cell cycle arrest in human multidrug resistant MCF/ADR cells assessed as accumulation at sub G0/G1 phase at 0.3 uM after 72 hrs by propidium fluorescence flow cytometry; type: functional, cell-based
[17] = Cell cycle arrest in human multidrug resistant MCF/ADR cells assessed as accumulation at G0/G1 phase at 0.3 uM after 48 hrs by propidium fluorescence flow cytometry; type: functional, cell-based
[18] = Cell cycle arrest in human multidrug resistant MCF/ADR cells assessed as accumulation at S phase at 0.3 uM after 24 hrs by propidium fluorescence flow cytometry; type: functional, cell-based
[19] = tested on: MCF/ADR; test: Cytocidal effect in human multidrug resistant MCF/ADR cells assessed as decrease in number of viable cells at 0.1 uM after 1 hr measured after 72 hrs in absence of drug by MTT colorimetric assay; type: functional, cell-based
[20] = tested on: MCF/WT; test: Induction of JNK p46 isoform phosphorylation in human drug-sensitive MCF/WT cells at 0.3 uM after 48 hrs by immunoblot analysis; type: cell-based
[21] = molecular target: Transcription factor Jun (Homo sapiens) (UniProt P05412); test: Induction of c-Jun serine 73 phosphorylation in human multidrug resistant MCF/ADR cells at 0.3 uM; type: cell-based
[22] = Cell cycle arrest in human drug-sensitive MCF/WT cells assessed as accumulation at sub G0/G1 phase at 0.3 uM after 48 hrs by propidium fluorescence flow cytometry; type: functional, cell-based

Sequence of Transcription factor Jun (Homo sapiens) (P05412 whole entry): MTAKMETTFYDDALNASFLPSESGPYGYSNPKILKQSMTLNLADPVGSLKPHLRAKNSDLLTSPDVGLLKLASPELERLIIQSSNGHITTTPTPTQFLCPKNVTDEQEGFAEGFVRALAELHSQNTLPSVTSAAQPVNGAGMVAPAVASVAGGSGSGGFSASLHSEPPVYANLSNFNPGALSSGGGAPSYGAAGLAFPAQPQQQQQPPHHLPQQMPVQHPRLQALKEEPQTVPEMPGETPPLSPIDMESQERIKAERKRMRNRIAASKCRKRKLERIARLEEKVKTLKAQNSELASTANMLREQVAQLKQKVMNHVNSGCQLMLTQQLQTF

## NC(=O)c1cn([C@@H]2O[C@H](CO)[C@@H](O)[C@H]2O)c2ncnc(N)c12 [SANGIVAMYCIN]
[1]
  Activity: Active
[2]
  Activity: Active
[3]
  Activity: inactive
[4]
  Activity: Active
[5]
  Activity: Active
[6]
  Activity: inactive
[7]
  Activity: 4%
[8]
  Activity: Active
[9]
  Ki: 10 µM
[10]
  Activity: Active
[11]
  Activity: Active
[12]
  Activity: 9%
[13]
  Activity: 57%
[14]
  Activity: Active
[15]
  Activity: Active
[16]
  Activity: 50%
[17]
  Activity: 20%
[18]
  Activity: 25%
[19]
  Activity: Active
[20]
  Activity: inactive
[21]
  Activity: Active
[22]
  Activity: 3%
